# Measured values taken from US10857112B2, “Small molecule inhibitors of RNA binding motif (RBM) proteins for the treatment of acute cellular injury” (University of Pittsburgh—Of the Commonwealth System of …, priority 2012, dated 2020).
# How the values were obtained:
# in vitro = settings: rat, decrease in neuronal viability, 250 nM STS alone
# Protocol: (§1) At D.I.V. 11, ½ media was collected (conditioned media) and mixed with an equal volume fresh neurobasal media (to make the 24 hour treatment media). STS was prepared at the desired concentration in treatment media, with or without experimental drugs (AQ2S or LY294002). The remaining growth maintenance media was replaced with 100 μL, of treatment media per well of a 96-well plate (or 2 mL for a six-well plate) for 24 hours.
# (§2) The LDH Cytotoxicity Assay Kit II was purchased from Abcam (Cambridge, Mass., USA). Neurons were cultured in 96-well format and subjected to STS injury ±AQ2S for 24 hours (in 100 μL, total media volume). At 23 hours maximum LDH release (positive control) was prepared by adding 10 μL, cell lysis reagent directly to a few non-injured wells (i.e., no STS or AQ2S). At the end of the 24 hour injury period, 80 μL, of media was transferred to a new 96-well plate. Plates were spun at ˜500 g for 5 minutes. 10 μL, of cell culture treatment media was added to a new black-walled plate and advanced WST detection reagent added. The mix was incubated for ˜15 minutes and absorbance measured (OD 450 nm). Fresh culture media was used as a negative control. Cytotoxicity was calculated using the standard formula: cytotoxicity %=(sample LDH−negative-control LDH)/(maximum LDH release−negative-control LDH)×100.
# [1] = system: primary rat cortical neurons; assay: STS injury, neuronal viability and cytotoxicity
# Protocol: as §1, §2
# [2] = molecular target: T1, recombinant active caspase-3 (Homo sapiens, UniProt P42574); assay: In vitro cell-free caspase-3 drug screening assay (DEVD-AFC); type: biochemical
# T1 construct: The reaction mixture was combined with recombinant active caspase-3 and a DEVD-AFC probe; purchased PromoKine (Heidelberg, Germany)
# T1 sequence (P42574 29-175 limits assumed): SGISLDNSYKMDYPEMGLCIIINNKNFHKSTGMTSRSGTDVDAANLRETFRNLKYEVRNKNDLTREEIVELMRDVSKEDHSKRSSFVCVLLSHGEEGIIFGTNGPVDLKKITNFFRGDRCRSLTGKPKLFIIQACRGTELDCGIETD
# T1 sequence (P42574 176-277 limits assumed): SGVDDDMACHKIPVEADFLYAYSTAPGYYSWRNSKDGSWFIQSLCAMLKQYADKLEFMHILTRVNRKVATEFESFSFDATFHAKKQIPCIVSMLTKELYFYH
# Protocol: An in vitro caspase drug screening kit was purchased from PromoKine (Heidelberg, Germany), and used according to the manufacturer's instructions. Briefly, all drugs were dissolved in DMSO and diluted in double-distilled water to desired concentration. The reaction mixture was combined with recombinant active caspase-3 and a DEVD-AFC probe. Active caspase-3 cleaves the DEVD-recognition sequence and releases fluorescent AFC. The amount of AFC detected is a measure of caspase-3 activity. Reactions were prepared in black-walled 96-well plates, incubated at 37° C., and AFC release measured with an AFC filter (Ex: 405 nm, Em: 495-505 nM) on a GLOMax-Multi Microplate Reader (Promega).
# [3] = system: primary rat cortical neurons; assay: H2O2 injury, neuronal viability 24 h (CellTiter-Blue); settings: 40 μM H2O2
# PI3K = settings: studies in cancer cells; cited from earlier work
# AKT = assay: Western blot of AKT activation (pAKT473); type: cell-based, rat; settings: 50 μM; baseline and 250 nM STS 6 hours
# Protocol: AKT is a key pro-survival kinase that is dysregulated by acute brain injury. Many diverse therapies used to prevent neuronal death activate AKT, including small molecules, endogenously derived survival proteins, and other non-pharmacology based treatments like therapeutic hypothermia. To further elucidate the mechanisms of AQ2S-mediated neuroprotection, the level of activated (phosphorylated) AKT was measured by western blot.
# Neurons used for Western blot analysis for grown in 6-well plates. Briefly, neurons were treated with experimental compounds for the indicated time/conditions. At the end of each experiment, neurons were washed in ice cold PBS and harvested in 65 μL RIPA buffer containing protease inhibitors, phosphatase inhibitors, and EDTA. Extracts were collected in 0.5 mL tubes and sonicated for 20-30 seconds. Cell extracts were then spun at 4° C./16,000 g/10 minutes and stored at −80° C. until use. Frozen extracts were thawed on ice and protein concentration measured using the BCA assay (PIERCE). […] of sample protein was loaded per well of a 7.5% SDS precast gel (Biorad), and run for 30 minutes to 1 hour at 200 V. Kaleidoscope protein standards (Biorad) were run parallel to neuron extracts. Proteins were then transferred to PDVF membranes (run at 100 V/4° C./1.5 hours). PDVF membranes were washed once in tris buffered saline (TBS) and blocked for 1 hour in tris buffered saline/tween-20 with 7.5% nonfat milk (TBS-T/milk). Blots were incubated overnight at 4° C. with primary antibodies in TBS-T/milk. Cell Signaling Technology: phospho-AKT473, AKT Total, phospho-ERK1/2, ERK Total, cleavage caspase-3. Santa Cruz Antibodies: NF-κB p50 subunit, NF-κB p65 subunit, and beta actin. Calbiochem: 4-HNE antibody. Blots were washed 3 times (5 minutes each) with TBS, and incubated with secondary antibodies for 2 hours. Invitrogen: goat anti-rabbit or goat anti-mouse. Blots were washed 3 times (5 minutes each) with TBS, and incubated for 1 minute in HRP detection solution (Amersham). Films were exposed to blots and developed (SRX-101A, Konica Minolta Medical & Graphic Inc.). Re-probed blots (e.g. beta actin, AKT total, ERK total) were stripped in western blot stripping buffer (Fischer Scientific) for 10 minutes, washed once with TBS, re-blocked in TBS-T/milk for 1 hour, and incubated overnight with new primary antibody. Films were scanned (EPSON GT 20,000), and densitometry performed using UN-SCAN-IT software (Silk Scientific).
molecule,measurement,setting,value
"CN[C@@H]1C[C@H]2O[C@@](C)([C@@H]1OC)n1c3ccccc3c3c4c(c5c6ccccc6n2c5c31)C(=O)NC4 [STS, staurosporine, reference compound]","cytotoxicity at 24 h, 250 nM",in vitro,81.1%
same,decrease in neuronal viability,"[1]; 250 nM STS alone, 24 h",71.5%
ZVAD-fmk [reference compound],activity of recombinant caspase-3,[2],significantly reduced the activity of recombinant caspase-3
same,"cell viability, comparison of neuroprotectants",[1]; 250 nM STS co-administered 24 hours,increased cell viability
"Cc1cc(O)c2c(c1)C(=O)c1cc(O)cc(O)c1C2=O [emodin, 6-methyl-1,3,8-trihydroxyanthraquinone]",activity of recombinant caspase-3,[2],not a direct caspase inhibitor in the cell-free assay
same,neuronal death after H2O2 injury,"[3]; post-treatment 5 μM, 24 h",failed to protect neurons
same,neuronal death after H2O2 injury,"[3]; post-treatment 25 μM, 24 h",failed to protect neurons
same,neuronal death after H2O2 injury,"[3]; post-treatment 50 μM, 24 h",exacerbated cell death
same,IC50,PI3K,3.3 µM
same,pAKT473,AKT,abolished baseline and injury induced AKT activation
O=C1c2c(O)cccc2C([C@@H]2O[C@H](CO)[C@@H](O)[C@H](O)[C@H]2O)c2cc(CO)cc(O)c21 (some centres unmarked) [aloin],neuronal death after H2O2 injury,"[3]; post-treatment, any concentration tested, 24 hours post-injury",ineffective at any concentration tested
